The experiment addresses Wee1-like protein kinase (Homo sapiens, UniProt P30291). As to the kind of experiment: Kinase Activity Assay: All reactions took place in 60 μL volumes in reaction buffer containing 40 mM Tris-HCl and 20 mM magnesium chloride, supplemented with 0.1 mg/mL bovine serum albumin and 2 mM DTT. Compounds were serially diluted in buffer and 5 μL of each concentration pipetted into a white 384 well plate (Sigma Aldrich M6186). A 5 μL aliquot of the Wee-1 enzyme was added to each well and the plate centrifuged for 1 min to ensure mixing of the enzyme and inhibitor. The plate was incubated at room temperature for 30 minutes before the addition of 2.0 μg/mL of substrate and 30 μM ATP in a 5 μL aliquot. The plate was centrifuged for one minute and incubated for 1 h at RT. 15 μL of ADP-Glo stop reagent was added to each well to quench the reaction and deplete unconverted ATP. The plate was incubated for a further 40 min in the dark at RT. 30 μL of ADP-Glo kinase detection reagent was added to each well, converting ADP to ATP, […]. The plate was shaken for 1 min, and incubated in the dark for an additional hour.

One may read the IC50 as the midpoint of a concentration-inhibition curve. Read a high IC50 as weaker potency in that assay.

Chain of Wee1-like protein kinase (P30291 whole entry): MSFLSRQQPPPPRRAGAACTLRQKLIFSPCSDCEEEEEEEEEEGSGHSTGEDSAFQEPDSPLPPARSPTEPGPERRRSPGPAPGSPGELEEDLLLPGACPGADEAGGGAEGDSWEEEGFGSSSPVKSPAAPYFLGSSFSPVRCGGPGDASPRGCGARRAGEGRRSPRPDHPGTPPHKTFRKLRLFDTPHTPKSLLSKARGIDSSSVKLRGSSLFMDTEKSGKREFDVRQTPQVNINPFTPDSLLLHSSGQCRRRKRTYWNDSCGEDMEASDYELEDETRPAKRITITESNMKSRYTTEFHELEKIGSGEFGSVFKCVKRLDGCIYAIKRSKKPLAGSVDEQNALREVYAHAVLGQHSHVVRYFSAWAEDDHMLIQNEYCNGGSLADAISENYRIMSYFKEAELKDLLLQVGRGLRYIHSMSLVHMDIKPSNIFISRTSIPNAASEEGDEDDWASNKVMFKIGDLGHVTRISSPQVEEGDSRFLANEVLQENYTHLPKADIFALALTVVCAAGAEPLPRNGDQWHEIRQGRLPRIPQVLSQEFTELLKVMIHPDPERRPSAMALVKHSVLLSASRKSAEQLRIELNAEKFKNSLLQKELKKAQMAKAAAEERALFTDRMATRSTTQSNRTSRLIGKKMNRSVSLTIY

Take `C=CCn1c(=O)c2cnc(Nc3ccc(N4CCOCC4)nc3)nc2n1-c1cccc(N=S(C)(C)=O)n1`: the IC50 was found to be 0.8 nM.

For the origin of these results see ChEMBL document CHEMBL5727960, “Wee-1 inhibiting pyrazolopyrimidinone compounds” (2020).
